# From PubChem BioAssay (NCI)
#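 1) Cells in 96-well plates. 2) Compound, 48 h, 5 concentrations. 3) Linear interpolation between surrounding doses. 4) Unreached endpoint = highest concentration. Here, GI50 denotes the concentration required for 50% inhibition of growth. The concentration for full growth arrest is given as TGI.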
# What was measured:
# Test in all cases: NCI anticancer screen, dose series, 48 h
# MDA-MB-435 = test system: MDA-MB-435
# SF-268 CNS = test system: SF-268 CNS
# LOX IMVI melanoma = test system: LOX IMVI melanoma
# HCT-15 colon = test system: HCT-15 colon
# DU-145 prostate = test system: DU-145 prostate
# NCI-H522 lung = test system: NCI-H522 lung
# OVCAR-8 ovarian = test system: OVCAR-8 ovarian
# SN12C renal = test system: SN12C renal
# UO-31 renal = test system: UO-31 renal
# NCI/ADR-RES ovarian = test system: NCI/ADR-RES ovarian
# SK-MEL-28 melanoma = test system: SK-MEL-28 melanoma
# HS 578T breast = test system: HS 578T breast
# MOLT-4 leukemia = test system: MOLT-4 leukemia
# HL-60(TB) leukemia = test system: HL-60(TB) leukemia
# RXF 393 renal = test system: RXF 393 renal
# RPMI-8226 leukemia = test system: RPMI-8226 leukemia
# MCF7 breast = test system: MCF7 breast
# BT-549 breast = test system: BT-549 breast
# T-47D breast = test system: T-47D breast
# TK-10 renal = test system: TK-10 renal
# OVCAR-3 ovarian = test system: OVCAR-3 ovarian
# HCT-116 colon = test system: HCT-116 colon
# CAKI-1 renal = test system: CAKI-1 renal
# MDA-MB-231 breast = test system: MDA-MB-231 breast
# NCI-H23 lung = test system: NCI-H23 lung
# MALME-3M melanoma = test system: MALME-3M melanoma
# IGROV1 ovarian = test system: IGROV1 ovarian
# ACHN renal = test system: ACHN renal
# A498 renal = test system: A498 renal
# SNB-75 CNS = test system: SNB-75 CNS
# OVCAR-5 ovarian = test system: OVCAR-5 ovarian
# SF-539 CNS = test system: SF-539 CNS
# SF-295 CNS = test system: SF-295 CNS
# SK-OV-3 ovarian = test system: SK-OV-3 ovarian
# NCI-H460 lung = test system: NCI-H460 lung
# HOP-92 NSCLC = test system: HOP-92 NSCLC
# KM12 colon = test system: KM12 colon
# NCI-H226 lung = test system: NCI-H226 lung
# SK-MEL-5 melanoma = test system: SK-MEL-5 melanoma
# K-562 leukemia = test system: K-562 leukemia
# COLO 205 colon = test system: COLO 205 colon
# HCC-2998 colon = test system: HCC-2998 colon
# PC-3 prostate = test system: PC-3 prostate
# HOP-62 NSCLC = test system: HOP-62 NSCLC
# CCRF-CEM leukemia = test system: CCRF-CEM leukemia
# OVCAR-4 ovarian = test system: OVCAR-4 ovarian
# M14 melanoma = test system: M14 melanoma
# UACC-257 melanoma = test system: UACC-257 melanoma
# SR leukemia = test system: SR leukemia
# SNB-19 CNS = test system: SNB-19 CNS
# UACC-62 melanoma = test system: UACC-62 melanoma
# HT29 colon = test system: HT29 colon
# U251 CNS = test system: U251 CNS
# SK-MEL-2 melanoma = test system: SK-MEL-2 melanoma
# A549 NSCLC = test system: A549 NSCLC
# 786-0 renal = test system: 786-0 renal
# SW-620 colon = test system: SW-620 colon
# EKVX NSCLC = test system: EKVX NSCLC
smiles,measurement,setting,value
COc1cc2c3c(n(CCCNCCCNCCCn4c5c(c6cc(OC)c(OC)cc6c4=O)C(=O)c4ccccc4-5)c(=O)c2cc1OC)-c1ccccc1C3=O,GI50,MDA-MB-435,12.9 µM
same,TGI,MDA-MB-435,> 59.1 µM
same,GI50,SF-268 CNS,6.61 µM
same,TGI,SF-268 CNS,> 100 µM
same,GI50,LOX IMVI melanoma,1310 nM
same,TGI,LOX IMVI melanoma,13.9 µM
same,GI50,HCT-15 colon,> 84.5 µM
same,TGI,HCT-15 colon,> 100 µM
same,GI50,DU-145 prostate,> 44.3 µM
same,TGI,DU-145 prostate,> 100 µM
same,GI50,NCI-H522 lung,1540 nM
same,TGI,NCI-H522 lung,38.7 µM
same,GI50,OVCAR-8 ovarian,2870 nM
same,TGI,OVCAR-8 ovarian,> 100 µM
same,GI50,SN12C renal,706 nM
same,TGI,SN12C renal,> 51.6 µM
same,GI50,UO-31 renal,> 100 µM
same,TGI,UO-31 renal,> 100 µM
same,GI50,NCI/ADR-RES ovarian,> 100 µM
same,TGI,NCI/ADR-RES ovarian,> 100 µM
same,GI50,SK-MEL-28 melanoma,> 52.5 µM
same,TGI,SK-MEL-28 melanoma,> 82.4 µM
same,GI50,HS 578T breast,> 50.7 µM
same,TGI,HS 578T breast,> 100 µM
same,GI50,MOLT-4 leukemia,2650 nM
same,TGI,MOLT-4 leukemia,9.8 µM
same,GI50,HL-60(TB) leukemia,1110 nM
same,TGI,HL-60(TB) leukemia,12.6 µM
same,GI50,RXF 393 renal,> 47.8 µM
same,TGI,RXF 393 renal,> 92.2 µM
same,GI50,RPMI-8226 leukemia,487 nM
same,TGI,RPMI-8226 leukemia,6.62 µM
same,GI50,MCF7 breast,1510 nM
same,TGI,MCF7 breast,> 53.2 µM
same,GI50,BT-549 breast,58.2 µM
same,TGI,BT-549 breast,> 100 µM
same,GI50,T-47D breast,> 24.8 µM
same,TGI,T-47D breast,> 100 µM
same,GI50,TK-10 renal,40.2 µM
same,TGI,TK-10 renal,> 100 µM
same,GI50,OVCAR-3 ovarian,12.6 µM
same,TGI,OVCAR-3 ovarian,31.5 µM
same,GI50,HCT-116 colon,1270 nM
same,TGI,HCT-116 colon,17.6 µM
same,GI50,CAKI-1 renal,> 100 µM
same,TGI,CAKI-1 renal,> 100 µM
same,GI50,MDA-MB-231 breast,2000 nM
same,TGI,MDA-MB-231 breast,20.1 µM
same,GI50,NCI-H23 lung,> 100 µM
same,TGI,NCI-H23 lung,> 100 µM
same,GI50,MALME-3M melanoma,25.7 µM
same,TGI,MALME-3M melanoma,> 91.7 µM
same,GI50,IGROV1 ovarian,1330 nM
same,TGI,IGROV1 ovarian,> 55.6 µM
same,GI50,ACHN renal,24.2 µM
same,TGI,ACHN renal,> 100 µM
same,GI50,A498 renal,25.2 µM
same,TGI,A498 renal,59.8 µM
same,GI50,SNB-75 CNS,25 µM
same,TGI,SNB-75 CNS,62.1 µM
same,GI50,OVCAR-5 ovarian,20 µM
same,TGI,OVCAR-5 ovarian,> 100 µM
same,GI50,SF-539 CNS,9.17 µM
same,TGI,SF-539 CNS,45.4 µM
same,GI50,SF-295 CNS,5.03 µM
same,TGI,SF-295 CNS,18.4 µM
same,GI50,SK-OV-3 ovarian,> 100 µM
same,TGI,SK-OV-3 ovarian,> 100 µM
same,GI50,NCI-H460 lung,6.23 µM
same,TGI,NCI-H460 lung,> 100 µM
same,GI50,HOP-92 NSCLC,1740 nM
same,TGI,HOP-92 NSCLC,8.62 µM
same,GI50,KM12 colon,4.77 µM
same,TGI,KM12 colon,> 84.9 µM
same,GI50,NCI-H226 lung,7.89 µM
same,TGI,NCI-H226 lung,> 52.2 µM
same,GI50,SK-MEL-5 melanoma,68.2 µM
same,TGI,SK-MEL-5 melanoma,> 100 µM
same,GI50,K-562 leukemia,3.39 µM
same,TGI,K-562 leukemia,45.4 µM
same,GI50,COLO 205 colon,7.24 µM
same,TGI,COLO 205 colon,> 61.9 µM
same,GI50,HCC-2998 colon,2130 nM
same,TGI,HCC-2998 colon,30.3 µM
same,GI50,PC-3 prostate,4.04 µM
same,TGI,PC-3 prostate,> 60 µM
same,GI50,HOP-62 NSCLC,6.59 µM
same,TGI,HOP-62 NSCLC,47 µM
same,GI50,CCRF-CEM leukemia,491 nM
same,TGI,CCRF-CEM leukemia,12.7 µM
same,GI50,OVCAR-4 ovarian,> 100 µM
same,TGI,OVCAR-4 ovarian,> 100 µM
same,GI50,M14 melanoma,22.6 µM
same,TGI,M14 melanoma,> 58.9 µM
same,GI50,UACC-257 melanoma,> 100 µM
same,TGI,UACC-257 melanoma,> 100 µM
same,GI50,SR leukemia,225 nM
same,TGI,SR leukemia,22.2 µM
same,GI50,SNB-19 CNS,6.91 µM
same,TGI,SNB-19 CNS,> 47.8 µM
same,GI50,UACC-62 melanoma,8.75 µM
same,TGI,UACC-62 melanoma,38.9 µM
same,GI50,HT29 colon,2150 nM
same,TGI,HT29 colon,> 100 µM
same,GI50,U251 CNS,2490 nM
same,TGI,U251 CNS,17.4 µM
same,GI50,SK-MEL-2 melanoma,40.3 µM
same,TGI,SK-MEL-2 melanoma,> 100 µM
same,GI50,A549 NSCLC,12.7 µM
same,TGI,A549 NSCLC,> 100 µM
same,TGI,786-0 renal,> 46.4 µM
same,GI50,SW-620 colon,7.51 µM
same,TGI,SW-620 colon,> 100 µM
same,GI50,EKVX NSCLC,> 100 µM
same,TGI,EKVX NSCLC,> 100 µM
